From US9073863B2, “Cyanoquinoline compounds having activity in correcting mutant-CFTR processing and increasing ion transport and uses thereof” (The Regents of the University of California, priority 2011, dated 2015) come the findings set out here.

Type in all cases: cell-based
Experiment [1] has as its target T1, ΔF508-CFTR (Homo sapiens, UniProt P13569, DEL508-508).
T1 construct: expressed in transfected cells; host or cells: Fischer rat thyroid (FRT) epithelial cells, stably transfected
The experiment is described as follows: Corrector assay by YFP/iodide fluorescence quenching in ΔF508-CFTR expressing A549 cells. The following applies: 24 h at 37° C. As for the experimental part: FIGS. 6A and 6B show graphs of Compound 22 activity in G551D-CFTR expressing FRT cells and DF508-CFTR expressing […] cells, according to embodiments of the present disclosure. […] (top) or 27° C. (bottom) for 24 h prior to iodide influx measurement, according to embodiments of the present disclosure. Graphs are representative of 3 sets of measurements.
(§1) To test whether Compound 22 is active in a different cell background, potentiator and corrector assays were performed in ΔF508-CFTR transfected A549 cells, which are of human lung epithelial origin. […] Apparent EC50 for Compound 22 potentiator activity was about 8 μM (FIG. 6B). […] (FIG. 6C, top). Compound 22 was further tested for corrector activity in A549 cells under the low-temperature synergy condition; however, DF508-CFTR was fully activated by forskolin ([…]) and genistein ([…]) in this cell model (FIG. 6C, bottom).

For experiment [2], the target named is T2, G551D-CFTR (Homo sapiens, UniProt P13569, G551D).
T2 construct: expressed in transfected cells; host or cells: Fischer rat thyroid (FRT) epithelial cells, stably transfected
T2 sequence (P13569 whole entry G551D): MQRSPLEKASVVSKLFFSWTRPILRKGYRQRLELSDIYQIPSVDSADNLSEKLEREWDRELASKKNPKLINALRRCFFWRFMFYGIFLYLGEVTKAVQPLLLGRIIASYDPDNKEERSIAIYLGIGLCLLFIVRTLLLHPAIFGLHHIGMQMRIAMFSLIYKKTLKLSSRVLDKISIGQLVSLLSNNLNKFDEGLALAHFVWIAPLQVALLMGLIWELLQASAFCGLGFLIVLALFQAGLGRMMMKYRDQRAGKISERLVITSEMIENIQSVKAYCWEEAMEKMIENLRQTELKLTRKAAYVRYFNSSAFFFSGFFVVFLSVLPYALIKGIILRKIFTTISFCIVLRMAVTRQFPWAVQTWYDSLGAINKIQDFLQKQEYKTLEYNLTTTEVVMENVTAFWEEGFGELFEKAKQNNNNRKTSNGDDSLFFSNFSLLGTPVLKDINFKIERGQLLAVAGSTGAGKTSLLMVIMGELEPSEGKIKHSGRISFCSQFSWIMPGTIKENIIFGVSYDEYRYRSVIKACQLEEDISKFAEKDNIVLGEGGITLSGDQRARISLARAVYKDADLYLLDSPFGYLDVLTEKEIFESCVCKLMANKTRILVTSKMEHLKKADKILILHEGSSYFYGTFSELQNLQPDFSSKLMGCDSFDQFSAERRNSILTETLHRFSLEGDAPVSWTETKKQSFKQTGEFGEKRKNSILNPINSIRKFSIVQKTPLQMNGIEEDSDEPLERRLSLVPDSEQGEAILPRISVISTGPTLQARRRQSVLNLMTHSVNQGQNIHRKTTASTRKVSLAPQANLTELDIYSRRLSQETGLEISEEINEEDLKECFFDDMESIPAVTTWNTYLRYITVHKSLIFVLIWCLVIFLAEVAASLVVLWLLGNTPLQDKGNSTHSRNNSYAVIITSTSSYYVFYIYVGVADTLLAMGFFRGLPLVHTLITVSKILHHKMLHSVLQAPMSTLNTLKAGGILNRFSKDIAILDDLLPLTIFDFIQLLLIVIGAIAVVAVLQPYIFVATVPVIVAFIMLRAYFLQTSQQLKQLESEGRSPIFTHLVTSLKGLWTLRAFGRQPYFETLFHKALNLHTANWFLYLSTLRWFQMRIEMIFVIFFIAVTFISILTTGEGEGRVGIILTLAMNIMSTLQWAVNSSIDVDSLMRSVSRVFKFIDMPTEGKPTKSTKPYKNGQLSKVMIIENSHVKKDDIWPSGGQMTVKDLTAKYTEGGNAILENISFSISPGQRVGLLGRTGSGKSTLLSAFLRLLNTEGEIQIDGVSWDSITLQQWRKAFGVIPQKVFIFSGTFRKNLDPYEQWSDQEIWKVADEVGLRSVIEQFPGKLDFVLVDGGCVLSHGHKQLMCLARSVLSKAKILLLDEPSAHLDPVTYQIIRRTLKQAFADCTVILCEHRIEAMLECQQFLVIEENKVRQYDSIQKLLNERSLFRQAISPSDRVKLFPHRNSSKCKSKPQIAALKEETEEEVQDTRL
As to the kind of experiment: Short-circuit current in FRT cells expressing G551D-CFTR. To be noted: in the presence of forskolin, vs genistein. As for the experimental part:
(§2) Potentiator studies were also performed in FRT cells expressing G551D-CFTR, a CF-causing CFTR mutation with defective channel gating but not plasma membrane trafficking. […] Where indicated, genistein (100 μM) and CFTRinh-172 (10 μM) were added. Graphs are representative of 3 sets of measurements. […] Measurements were made in the presence of 20 μM forskolin.

The target of a further experiment is T3, wildtype CFTR (Homo sapiens, UniProt P13569).
T3 construct: expressed in transfected cells; host or cells: Fischer rat thyroid (FRT) epithelial cells, stably transfected
T3 sequence (P13569 whole entry): as the sequence (P13569 whole entry G551D) above, with D551G counted along it
As to the kind of experiment: Short-circuit current in FRT cells expressing wildtype CFTR. The following applies: added after 0.25 or 0.5 μM forskolin. On the procedure:
To further investigate Compound 22 potentiator action, short-circuit current was measured in FRT cells expressing wildtype CFTR (FIG. 5B). Studies were done as in FIG. 5A except that low concentrations of forskolin (0-0.5 μM) were used because higher concentrations fully activate wildtype CFTR and thus would mask Compound 22 potentiator action. As found for ΔF508-CFTR, there was little effect of Compound 22 in the absence of forskolin. In each experiment, after Compound 22 additions, 10 μM forskolin was added to fully activate wildtype CFTR, followed by 50 μM genistein, which had little effect, followed by 10 μM CFTRinh-172, which inhibited all chloride current.

The target of experiment [3] is T1, ΔF508-CFTR. As to the kind of experiment: Short-circuit current (apical membrane chloride current) corrector assay in ΔF508-CFTR expressing FRT cells. On the procedure:
Short-circuit current measurements. ΔF508-CFTR-expressing FRT cells were cultured on Snapwell inserts for 7-9 days. For corrector testing, test compounds were incubated with FRT cells for 18-24 h at 37° C. prior to measurements. For potentiator testing, the FRT cells were incubated for 18-24 h at 27° C. prior to measurements. The basolateral solution contained 130 mM NaCl, 2.7 mM KCl, 1.5 mM KH2PO4, 1 mM CaCl2, 0.5 mM MgCl2, 10 mM glucose, and 10 mM Na-HEPES (pH 7.3). In the apical bathing solution, 65 mM NaCl was replaced by Na gluconate, and CaCl2 was increased to 2 mM. Solutions were bubbled with air and maintained at 37° C. The basolateral membrane was permeabilized with 250 μg/ml amphotericin B. Hemichambers were connected to a DVC-1000 voltage clamp (World Precision Instruments Inc.) via Ag/AgCl electrodes and 1 M KCl agar bridges for recording of short-circuit current.
Short-circuit current was measured as a definitive electrophysiological assay to verify Compound 22 corrector action. Apical membrane chloride current was measured in ΔF508-CFTR expressing FRT cells after basolateral membrane permeabilization and in the presence of a transepithelial chloride gradient (apical, 65 mM; basolateral, 130 mM). In FIG. 3C, incubation with Corr-4a (5 μM) is shown as reference (right). Forskolin (20 μM), genistein (50 μM) and CFTRinh-172 (10 μM) were added where indicated. […] FIG. 3D summarizes Compound 22 concentration dependence data from short-circuit current studies. […]
Short-circuit current was measured in an electrophysiology assay to verify corrector activity. Apical membrane chloride current was measured in ΔF508-CFTR expressing FRT cells after basolateral membrane permeabilization and in the presence of a transepithelial chloride gradient. […] To assay potentiator activity apical membrane chloride current was measured after low-temperature rescue, in response to CP-3 addition. CP-3 concentration-dependent increases in apical membrane current were measured in the presence of 5 μM forskolin. […]

Experiment [4] has as its target T1, ΔF508-CFTR. As to the kind of experiment: Potentiator assay by YFP/iodide fluorescence quenching in ΔF508-CFTR expressing A549 cells. On the procedure: (§3) Representative fluorescence quenching curves (FIG. 6B (top)) shown with deduced Compound 22 and genistein concentration dependence (FIG. 6B (bottom), SEM, n=4). Fluorescence plate reader assays in FIG. 6B confirmed that Compound 22 activated G551D-CFTR in the presence of forskolin, with lower maximal efficacy than genistein.
as §1

Experiment [5] addresses T2, G551D-CFTR. The experiment is described as follows: Plate reader assay of G551D-CFTR chloride conductance in FRT cells. To be noted: in the presence of 20 μM forskolin. As for the experimental part: as §2, §3

As a reminder, the EC50 is the midpoint of the concentration-response curve.

T1 sequence (P13569 with tags, fused parts or gaps DEL508-508): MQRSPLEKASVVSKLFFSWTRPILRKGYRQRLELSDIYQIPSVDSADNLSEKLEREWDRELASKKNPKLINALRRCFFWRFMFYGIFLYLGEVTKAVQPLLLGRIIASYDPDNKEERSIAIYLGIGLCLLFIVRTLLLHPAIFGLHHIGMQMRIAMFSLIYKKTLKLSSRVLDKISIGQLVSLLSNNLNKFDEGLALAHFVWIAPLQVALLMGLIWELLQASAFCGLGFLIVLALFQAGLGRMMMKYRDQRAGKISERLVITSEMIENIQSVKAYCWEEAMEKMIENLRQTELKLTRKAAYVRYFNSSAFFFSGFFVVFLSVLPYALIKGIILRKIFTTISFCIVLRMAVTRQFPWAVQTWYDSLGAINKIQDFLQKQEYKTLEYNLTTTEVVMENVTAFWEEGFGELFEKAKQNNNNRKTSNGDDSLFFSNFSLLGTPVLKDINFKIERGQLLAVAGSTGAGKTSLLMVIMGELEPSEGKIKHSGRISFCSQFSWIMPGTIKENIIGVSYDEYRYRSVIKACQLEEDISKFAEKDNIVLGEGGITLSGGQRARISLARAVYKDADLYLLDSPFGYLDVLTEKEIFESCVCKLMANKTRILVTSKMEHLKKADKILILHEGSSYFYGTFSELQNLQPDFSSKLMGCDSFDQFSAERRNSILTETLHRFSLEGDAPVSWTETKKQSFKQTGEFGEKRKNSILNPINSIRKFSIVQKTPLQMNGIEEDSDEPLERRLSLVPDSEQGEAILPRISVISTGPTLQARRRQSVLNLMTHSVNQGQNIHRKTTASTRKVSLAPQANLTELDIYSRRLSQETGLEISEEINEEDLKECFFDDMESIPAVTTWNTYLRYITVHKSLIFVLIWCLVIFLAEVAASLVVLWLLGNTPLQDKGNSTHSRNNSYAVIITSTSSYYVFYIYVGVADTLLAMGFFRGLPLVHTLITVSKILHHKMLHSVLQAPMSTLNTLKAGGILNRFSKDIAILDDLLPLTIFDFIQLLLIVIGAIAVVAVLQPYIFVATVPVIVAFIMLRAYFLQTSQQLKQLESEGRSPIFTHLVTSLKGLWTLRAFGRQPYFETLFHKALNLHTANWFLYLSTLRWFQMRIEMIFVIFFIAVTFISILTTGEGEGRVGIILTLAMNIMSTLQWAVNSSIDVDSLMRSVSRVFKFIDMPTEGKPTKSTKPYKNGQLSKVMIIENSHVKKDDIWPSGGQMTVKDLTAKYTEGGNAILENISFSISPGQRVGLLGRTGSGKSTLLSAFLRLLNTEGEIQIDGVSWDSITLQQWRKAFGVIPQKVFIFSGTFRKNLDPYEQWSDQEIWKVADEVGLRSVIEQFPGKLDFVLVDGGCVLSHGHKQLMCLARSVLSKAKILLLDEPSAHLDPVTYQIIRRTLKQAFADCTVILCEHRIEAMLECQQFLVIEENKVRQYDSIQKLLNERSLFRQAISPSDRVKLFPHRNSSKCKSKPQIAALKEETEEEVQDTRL

For `COc1cccc(C(=O)NCCNc2nc3cc(C)cc(C)c3cc2C#N)c1` [Compound 22, N-(2-((3-Cyano-5,7-dimethylquinolin-2-yl)amino)ethyl)-3-methoxybenzamide], on ΔF508-CFTR [1], the “corrector activity in A549 cells, in words” value was “little corrector activity compared to Corr-4a”. In addition, on G551D-CFTR [2], the “potentiator action on G551D-CFTR chloride current” value is listed as “weak potentiator”. Further, the “activation of wildtype CFTR, in words” value at wildtype CFTR was “partially activated”. For the same molecule, the EC50 at wildtype CFTR (read-out: EC50 of wildtype CFTR activation) was about 10 µM; on ΔF508-CFTR [4] (A549 cells, read-out: Apparent EC50 for potentiator activity) it was about 8 µM; on G551D-CFTR [5] (read-out: Apparent EC50 for activation of G551-CFTR) it was about 5 µM. Also, the “increase in apical membrane current (corrector)” value on ΔF508-CFTR [3] (5 and 10 μM, 18-24 h incubation) is “comparable to that conferred by 5 μM Corr-4a”. For the same molecule, the “corrector and potentiator maximum efficacy” value at ΔF508-CFTR [3] (electrophysiological analysis) is “comparable to those of the bithiazole Corr-4a and the flavone genistein”. In addition, at ΔF508-CFTR [4], the “potentiator activity in A549 cells, in words” value was “comparable to that in FRT cells”. The “maximum efficacy of G551D-CFTR activation” value at G551D-CFTR [5] is listed as “lower than that of genistein”.
